Test results as given in US10238633B2, “Methods for treating pulmonary emphysema using substituted 2-Aza-bicyclo[2.2.1]heptane-3-carboxylic acid (benzyl-cyano-methyl)-amides inhibitors of Cathepsin C” (Boehringer Ingelheim International GmbH, priority 2013, dated 2019).
Where two headings read alike, the source gives them in different places.

Key:
[1] = system: Neutrophil elastase activity in U937 cells; assay: Determination of neutrophil elastase activity in U937 cytosolic lysate preparation after incubation with test compound; assay type: cell-based; settings: Homo sapiens, U-937, read-out: Reduction of NE-activity in U937 cells IC50
Method: Determination of Neutrophil Elastase Activity in U937 Cytosolic Lysate Preparation after Incubation with Test Compound
Optiplate 384F were purchased from PerkinElmer (Prod. No. #6007270). 24 well Nunclon cell culture plates (No. 142475) and 96 well plates (No. 267245) were from Nunc. Dimethylsulfoxid (DMSO) was from Sigma (Prod. No. D8418). Nonidet-P40 (NP40) was from USBiological (Prod. No. N3500)
Substrate, specific for Neutrophil elastase, was from Bachem (MeOSuc-Ala-Ala-Pro-Val-AMC; Prod. No. 1-1270).
Human neutrophil elastase was from Calbiochem (Prod. No. 324681)
Tris-buffer (100 mM Tris; 1M NaCL; pH 7.5)
Tris-buffer+HSA 0.1%; Human Serum Albumin from Calbiochem (Cat#. 126658)
Serine-protease buffer (20 mM Tris; 100 mM NaCL; pH 7.5)+0.1% HSA
Serine protease lysis buffer: 20 mM Tris-HCL; 100 mM NaCl pH 7.5; +0.2% Nonidet-P40;
PBS: phosphate buffered saline, without Ca and Mg, from Gibco
U937 from ECACC (Cat. No. 85011440) cultured in suspension at 37° C. and 5% CO2.
Cell density: 0.2-1 Mio. Cells/ml.
Medium: RPMI1640 GlutaMAX (No. 61870) with 10% FCS from Gibco
Cell Seeding and Treatment:
Compounds in 100% DMSO were diluted in Medium (—FCS) with 10% DMSO and further diluted according to the experiment planned.
20 μl of the compound solution was transferred in the respective wells of the 24 well plate and diluted with 2 ml cell suspension/well containing […] (final concentration of DMSO=0.1%). Compound dilution factor=100
Compounds (up to 7 concentrations) were tested in triplicates with 3 wells for the DMSO 0.1% control, incubated for 48 hours without medium change at 37° C., 5% CO2 and 95% relative humidity.
Cell Harvesting and Cell Lysate:
Transfer the cell suspension in 2.2 ml Eppendorf cups. Separate cells from medium by centrifugation (400×g; 5 min; RT); discard the supernatant. Resuspend in 1 ml PBS; centrifugation (400×g; 5 min; RT); wash cells twice with PBS. Add 100 μl Serin lysis buffer (ice cold) to the cell pellet; resuspend the pellet and store on ice for 15 minutes. Remove debris by centrifugation at 15000×g for 10 min at 4° C. Transfer 80-100 μl lysate supernatant in 96 well plate and store immediately at −80° C.
Neutrophil Elastase Activity Assay:
Frozen lysates were thawn at 37° C. for 10 minutes and stored on ice. Protein content was determined with Bradford protein assay. Lysates were diluted to 0.2-0.5 mg/ml protein in serine protease buffer+HSA.
Standard: NE (100 μg/ml stock solution in Tris-buffer; stored at −80° C.) was diluted in Tris-buffer+HSA to 750 ng/ml, and further serially diluted 1:2 for the standard curve.
Buffer, blank, standard and lysate samples were transferred into 384 well plate
Blank: 5 μl Tris-buffer+10 μl Tris-buffer+HSA+5 μl Substrate
Standard: 5 μl Tris-buffer+10 μl NE (diff. conc.)+5 μl Substrate
Lysate: 5 μl Tris-buffer+10 μl Lysat+[…] Substrate
The increase in fluorescence (Ex360 nm/Em 460 nm) is determined over 30 minutes with a Molecular Device Spectramax M5 Fluorescence Reader. Kinetic Reduction (Vmax units/sec); 4 vmax points. The amount of neutrophil elastase (ng/ml) is calculated using the standard curve and the Spectramax software. The result is interpolated to ng/mg lysate protein using excel formula functions. […] IC50 is calculated using Graphpad Prism; nonlinear fitting (log(inhibitor) vs. response—Variable slope).

[2] = Determination of metabolic stability with human liver microsomes; settings: pooled human liver microsomes, 37° C., test compound 1 μM, NADPH
Method: (§1) Determination of Metabolic Stability with Human Liver Microsomes
(§2) The metabolic degradation of the test compound is assayed at 37° C. with pooled human liver microsomes. The final incubation volume of 100 μl per time point contains TRIS buffer pH 7.6 (0.1 M), magnesium chloride (5 mM), microsomal protein (1 mg/ml) and the test compound at a final concentration of 1 μM. Following a short preincubation period at 37° C., the reactions are initiated by addition of beta-nicotinamide adenine dinucleotide phosphate, reduced form (NADPH, 1 mM) and terminated by transferring an aliquot into acetonitrile after different time points. Additionally, the NADPH-independent degradation is monitored in incubations without NADPH, terminated at the last time point. The [%] remaining test compound after NADPH independent incubation is reflected by the parameter c(control) (metabolic stability). The quenched incubations are pelleted by centrifugation (10,000 g, 5 min). An aliquot of the supernatant is assayed by LC-MS/MS for the amount of parent compound.
(§3) The half-life (t1/2 INVITRO) is determined by the slope of the semilogarithmic plot of the concentration-time profile. The intrinsic clearance (CL_[sequence]) is calculated by considering the amount of protein in the incubation: CL_[sequence] [μl/min/mg protein]=(In 2/(half-life [min]*protein content [mg/ml]))*1,000.

[3] = microsomes
Method: as §1, §2, §3

Compound	IC50 [1] [nM]	In vitro stability in human liver microsome incubations t½ [2] [h]	In vitro stability in human liver microsome incubations t½ [3] [h]
N#C[C@H](Cc1ccc(N2CCCN3CCCC3C2)cc1F)NC(=O)[C@H]1N[C@@H]2CC[C@H]1C2 (stereo partly drawn) [Example 271]	1.7	2.17	–
N#C[C@H](Cc1ccc(N2CC3CCN(C4CCOC4)C3C2)cc1F)NC(=O)[C@H]1N[C@@H]2CC[C@H]1C2 (stereo partly drawn) [Example 348]	2	2.17	–
N#Cc1ccc(-c2ccc(C[C@@H](C#N)NC(=O)[C@H]3N[C@H]4C[C@@H]3[C@@H]3C[C@@H]34)c(F)c2)s1 [Example 40]	–	–	>2.17
N#C[C@H](Cc1ccc(-c2cc(C(=O)N3CCn4nccc4C3)co2)cc1F)NC(=O)[C@H]1N[C@@H]2CC[C@H]1C2 [Example 240]	–	–	1.83
